Reference: patent publication US7582786B2, “Synthetic catalytic free radical scavengers useful as antioxidants for prevention and therapy of disease” (Eukarion Inc., priority 1996, dated 2009)

Legend:
[1] = test system: Human dermal fibroblasts (HF cells); experiment: Cell protection assay, glucose/glucose oxidase toxicity, XTT; type: cell-based; conditions: for protection against glucose and glucose oxidase: glucose oxidase 0.019 units/ml
How it was run: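 Confluent HF fibroblasts (passage 5–6) were incubated 18 h at 37 °C with test compounds plus glucose oxidase (0.019 units/ml) in DMEM containing 4.5 g/l glucose, a reproducibly lethal level. Viability was read by XTT after 2 h as absorbance at 490 nm (reference 655 nm), relative to untreated and cell-free blanks.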

brain homogenates = experiment: Iron-induced lipid peroxidation in brain homogenates (MDA); type: biochemical, rat
Experimental: Lipid peroxidation was induced by incubating a mixture consisting of 0.25 ml homogenate, 0.25 ml ASCF with test compounds, and 10 μM FeCl2 for 1 hr at 35° C. under an atmosphere equilibrated with O2:CO2(95:5). Following the incubation, 0.1 ml of the sample was extracted with trichloroacetic acid and analyzed for thiobarbituric acid reactive material as described previously, using authentic malonyldialdehyde (MDA) as a standard.

[2] = Catalase activity, conversion of H2O2 to oxygen, polarographic oxygen electrode (Example 2); type: biochemical
How it was run: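 Clark-type oxygen electrode at 25 °C in 50 mM sodium phosphate pH 8.1, 0.9% NaCl, with 10 μM salen-manganese complex and 10 mM H2O2. Initial rates from slope of first ~5 s, corrected for H2O2-alone rate; endpoint O2 as maximal minus pre-substrate baseline.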

[3] = Peroxidase activity with t-BHP as substrate, ABTS oxidation; type: biochemical
Experimental: Peroxidase activity was assayed by monitoring the hydrogen peroxide-dependent oxidation of 2,2′-azino-bis(3-ethylbenzthiazoline-6) sulfonic acid (ABTS) spectrophotometrically. Standard assay mixtures consisted of 50 mM sodium phosphate, pH 8.1, 0.9% sodium chloride, 0.5 mM ABTS, and H2O2 and salen manganese complex as indicated. Where indicated, 50 mM sodium phosphate buffers of pH 6.0 or pH 7.1 were substituted. Assays were conducted at 27±0.2° C. ABTS oxidation was monitored at 740 or 500 nm to eliminate interference by the salen manganese complexes, many of which absorb in the vicinity of the λmax of oxidized ABTS, and to avoid absorbance values that exceeded the linear range of the spectrophotometer. The amount of oxidized ABTS was estimated using an Δε740 of 20,300 M^−1cm^−1 or an Δε500 of 3400 M^−1cm^−1 calculated based upon the published molar extinction coefficient oat 405 nm (36,800).
(In comparison, horseradish peroxidase utilized t-BHP with an ABTS oxidation rate that was about 5.4% of the rate with H2O2).

[4] = Peroxidase activity, H2O2-dependent oxidation of ABTS (Example 2); type: biochemical; conditions: for Peroxidase rate: 10 μM salen manganese complex, 0.2 mM H2O2; for Peroxidase: relative to C7 (C7 = 100)
How it was run: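 ABTS oxidation by salen manganese complex (10 μM) with 0.2 mM H2O2 in 50 mM sodium phosphate pH 8.1 (or pH 6.0/7.1 where indicated), 0.9% NaCl, 0.5 mM ABTS, 27±0.2 °C. Oxidized ABTS read spectrophotometrically at 740 or 500 nm and quantified from Δε740 20,300 or Δε500 3400 M^−1cm^−1.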

[5] = 10 μM salen manganese complex, 10 mM H2O2

Structure (SMILES) | protection against glucose and glucose oxidase (in words) [1] | MDA levels, percent of control (brain homogenates; 1 μM) [%] | MDA levels, percent of control (brain homogenates; 5 μM) [%] | MDA levels, percent of control (brain homogenates; 10 μM) [%] | MDA levels, percent of control (brain homogenates; 25 μM) [%] | catalase activity (in words) [2] | Catalase rate [2, 5] [μM O2/min] | Endpoint [2, 5] [maximal μM O2] | Catalase endpt. ([2]; relative to C7 (C7 = 100)) | Catalase rate ([2]; relative to C7 (C7 = 100)) | peroxidase activity (in words) [4] | Peroxidase rate [4] [μM ABTS oxidized/min] | Peroxidase [4] | protection against glucose and glucose oxidase ([1]; 40 μM) | protection against glucose and glucose oxidase ([1]; 80 μM) | also measured
COc1cc(OC)c2c(c1)[O][Mn]([O]C(C)=O)[O]c1cc(OC)cc(OC)c1C=NCCN=C2 [Compound C35] | not cytoprotective | 82 | 5 | 4 | 3 | much lower catalase activity | 36.0 ± 8.0 | 10.5 ± 3.0 | 41 | 25 | undetectable activity | −0.1 ± 0.1 | 0 |  |  | inhibition of lipid peroxidation (in words) (brain homogenates): very potent; peroxidase activity toward t-BHP, percent of C7 [3]: less than 2%
COc1cccc2c1[O][Mn]([O]C(C)=O)[O]c1c(cccc1OC)C=NCCN=C2 [Compound C32] | more protective than C43 | 104 | 35 | 13 | 8 | about twice as fast as C7 | 295.0 ± 31.9 | 90.1 ± 2.6 | 319 | 188 | fastest peroxidases | 34.2 ± 1.5 | 203 | significant protection | complete protection | turnovers before the catalase reaction ceased ([2]; 10 μM complex, 10 mM H2O2): about 16 turnovers; peroxidase rate with t-BHP relative to C7 [3]: ~3 fold
COc1cccc2c1[O][Mn]([Cl])[O]c1c(cccc1OC)C=NCCN=C2 [Compound C40] |  |  |  |  |  | higher rate |  |  | 272 | 155 | fastest peroxidases | 32.9 ± 0.2 | 203 | significant protection | complete protection | 
[Cl][Mn]1[O]c2ccccc2C=NCCN=Cc2ccccc2[O]1 [Compound C7] |  | 110 | 84 | 22 | 4 | exhibits catalase activity | 148.6 ± 33.5 | 32.3 ± 1.2 | 100 | 100 | exhibits peroxidase activity | 20.0 ± 0.5 | 100 |  |  | catalase turnovers completed ([2]; 10 μM C7, ~1 mM H2O2): no more than a single turnover; ABTS oxidation rate with t-BHP, percent of rate with H2O2 ([3]; 1 mM t-BHP): about 0.5%; ABTS oxidized ([4]; 10 μM C7, 1 mM H2O2, pH 8.1): up to 88 μM; peroxidase turnovers ([4]; 10 μM C7, 1 mM H2O2, pH 8.1): over 8 turnovers
